Active and inactive are the calls of the source. The calls are words filed in the database; no cut-off is given here.
What was measured:
[1] = AUC (0 to 6 hrs) in rat at 5 mg/kg, po; assay type: ADME, organism-based; parameters: time < 6 hr, dose 5 mg/kg, route oral; settings: plasma
[2] = Ratio of drug level in brain to plasma in rat at 5 mg/kg, po; assay type: ADME, organism-based; parameters: dose 5 mg/kg, route oral; settings: read-out: BPR
[3] = Half life in rat at 5 mg/kg, po after 6 hrs; assay type: ADME, organism-based; parameters: dose 5 mg/kg, route oral; settings: in vivo
[4] = molecular target: Histamine H3 receptor (Rattus norvegicus, UniProt Q9QYN8); test: Displacement of [3H]NAMH from rat cloned histamine 3 receptor expressed in CHO cells; assay type: cell-based
[5] = molecular target: T1, Histamine H3 receptor (Homo sapiens, UniProt Q9Y5N1); test: Displacement of [3H]NAMH from human cloned histamine 3 receptor expressed in CHO cells; assay type: cell-based
[6] = Oral bioavailability in rat; assay type: ADME, organism-based; settings: in vivo
[7] = Ratio of drug level in brain to plasma in iv dosed rat; assay type: ADME, organism-based; settings: read-out: BPR
[8] = molecular target: Cytochrome P450 2C19 (Homo sapiens, UniProt P33261); test: Inhibition of CYP2C19; assay type: ADME
[9] = Half life in dog liver microsomes; assay type: ADME, Canis lupus familiaris, Microsome
[10] = tested on: Rattus norvegicus; test: Induction of wake promoting activity in EEG/EMG Sprague-Dawley rat model assessed as increase in waking time at 10 mg/kg, ip after 4 hrs; assay type: functional; settings: route intraperitoneal
[11] = Cmax in rat at 5 mg/kg, po after 6 hrs; assay type: ADME, organism-based; parameters: dose 5 mg/kg, route oral; settings: in vivo
[12] = Half life in rat at 1 mg/kg, iv after 6 hrs; assay type: ADME, organism-based; parameters: dose 1 mg/kg, route intravenous; settings: in vivo
[13] = Volume of distribution in rat at 1 mg/kg, iv after 6 hrs; assay type: ADME, organism-based; parameters: dose 1 mg/kg, route intravenous; settings: in vivo
[14] = molecular target: T1, Histamine H3 receptor; test: Inverse activity against human histamine 3 receptor by [35S]GTPgammaS binding assay; assay type: functional
[15] = molecular target: Sodium-dependent noradrenaline transporter (Homo sapiens) (UniProt P23975); test: Inhibition of NET at 10 uM
[16] = molecular target: T1, Histamine H3 receptor; test: Antagonist activity at human histamine 3 receptor by [35S]GTPgammaS binding assay; assay type: functional
[17] = Half life in rat liver microsomes; assay type: ADME, Microsome
[18] = tested on: Rattus norvegicus; test: Induction of wake promoting activity in EEG/EMG Sprague-Dawley rat model assessed as increase in waking time at 3 mg/kg, ip after 4 hrs; assay type: functional; settings: route intraperitoneal
[19] = tested on: Rattus norvegicus; test: Induction of wake promoting activity in EEG/EMG Sprague-Dawley rat model assessed as increase in waking time at 10 mg/kg, ip after 7 hrs; assay type: functional; settings: route intraperitoneal
[20] = molecular target: Cytochrome P450 3A4 (Homo sapiens, UniProt P08684); test: Inhibition of CYP3A4; assay type: ADME
[21] = tested on: Rattus norvegicus; test: Inhibition of (R)-alpha-methyl histamine-induced dipsogenia in ip dosed rat; assay type: functional
[22] = Oral bioavailability in rat at 5 mg/kg after 6 hrs; assay type: ADME, organism-based; settings: in vivo
[23] = molecular target: Cytochrome P450 2C9 (Homo sapiens, UniProt P11712); test: Inhibition of CYP2C9; assay type: ADME
[24] = Half life in human liver microsomes; assay type: ADME, Microsome
[25] = Half life in mouse liver microsomes; assay type: ADME, Microsome
[26] = Solubility of the compound at pH 2; assay type: physicochemical; settings: buffer
[27] = Half life in monkey liver microsomes; assay type: ADME, Macaca mulatta, Microsome; settings: rhesus monkey
[28] = molecular target: T2, Cytochrome P450 1A2 (Homo sapiens, UniProt P05177); test: Inhibition of CYP1A2; assay type: ADME
T2 sequence (P05177 whole entry): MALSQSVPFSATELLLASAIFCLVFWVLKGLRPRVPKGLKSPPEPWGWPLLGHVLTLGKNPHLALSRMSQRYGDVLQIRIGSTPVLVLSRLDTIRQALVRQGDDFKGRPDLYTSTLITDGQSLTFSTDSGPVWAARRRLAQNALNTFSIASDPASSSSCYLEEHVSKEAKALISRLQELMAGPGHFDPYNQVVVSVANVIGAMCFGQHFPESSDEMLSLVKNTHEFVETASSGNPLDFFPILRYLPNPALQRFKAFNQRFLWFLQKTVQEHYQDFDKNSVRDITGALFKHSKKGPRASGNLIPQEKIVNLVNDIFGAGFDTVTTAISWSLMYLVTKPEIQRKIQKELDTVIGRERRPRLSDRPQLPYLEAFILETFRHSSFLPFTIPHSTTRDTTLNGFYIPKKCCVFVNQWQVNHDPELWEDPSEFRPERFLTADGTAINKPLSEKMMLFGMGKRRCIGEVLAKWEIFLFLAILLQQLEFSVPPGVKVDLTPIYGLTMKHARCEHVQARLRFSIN

[29] = molecular target: Cytochrome P450 2D6 (Homo sapiens, UniProt P10635); test: Inhibition of CYP2D6; assay type: ADME
[30] = Clearance in rat at 1 mg/kg, iv after 6 hrs; assay type: ADME, organism-based; parameters: dose 1 mg/kg, route intravenous; settings: in vivo
[31] = Solubility of the compound at pH 7.4; assay type: physicochemical; settings: buffer
[32] = molecular target: Voltage-gated inwardly rectifying potassium channel KCNH2 (Homo sapiens, UniProt Q12809); test: Inhibition of human ERG by patch express assay
[33] = Clearance in iv dosed rat; assay type: ADME, organism-based; settings: in vivo
[34] = Volume of distribution in iv dosed rat; assay type: ADME, organism-based; settings: in vivo
[35] = Half life in iv dosed rat; assay type: ADME, organism-based; settings: in vivo
[36] = tested on: Rattus norvegicus; test: Induction of wake promoting activity in EEG/EMG Sprague-Dawley rat model assessed as increase in waking time at 30 mg/kg, ip after 4 hrs; assay type: functional; settings: route intraperitoneal
[37] = molecular target: Histamine H4 receptor (Homo sapiens) (UniProt Q9H3N8); test: Inhibition of human histamine H4 receptor at 10 uM
[38] = molecular target: Histamine H1 receptor (Homo sapiens) (UniProt P35367); test: Inhibition of human histamine H1 receptor at 10 uM
[39] = tested on: Rattus norvegicus; test: Induction of wake promoting activity in ip dosed EEG/EMG Sprague-Dawley rat model assessed as increase in waking time after 4 hrs; assay type: functional, organism-based
[40] = molecular target: Histamine H2 receptor (Homo sapiens) (UniProt P25021); test: Inhibition of human histamine H2 receptor at 10 uM
Histamine H2 receptor (Homo sapiens), sequence (P25021 whole entry): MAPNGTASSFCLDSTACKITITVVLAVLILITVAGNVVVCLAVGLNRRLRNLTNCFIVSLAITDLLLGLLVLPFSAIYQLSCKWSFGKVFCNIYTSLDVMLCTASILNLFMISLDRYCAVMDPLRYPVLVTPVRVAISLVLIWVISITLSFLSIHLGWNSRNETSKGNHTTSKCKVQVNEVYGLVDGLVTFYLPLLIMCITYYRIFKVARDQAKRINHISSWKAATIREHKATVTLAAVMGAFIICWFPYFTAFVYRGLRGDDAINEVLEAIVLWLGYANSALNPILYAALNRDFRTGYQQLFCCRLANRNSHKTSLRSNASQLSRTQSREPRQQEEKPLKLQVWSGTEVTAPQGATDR

Cytochrome P450 2C19, sequence (P33261 whole entry): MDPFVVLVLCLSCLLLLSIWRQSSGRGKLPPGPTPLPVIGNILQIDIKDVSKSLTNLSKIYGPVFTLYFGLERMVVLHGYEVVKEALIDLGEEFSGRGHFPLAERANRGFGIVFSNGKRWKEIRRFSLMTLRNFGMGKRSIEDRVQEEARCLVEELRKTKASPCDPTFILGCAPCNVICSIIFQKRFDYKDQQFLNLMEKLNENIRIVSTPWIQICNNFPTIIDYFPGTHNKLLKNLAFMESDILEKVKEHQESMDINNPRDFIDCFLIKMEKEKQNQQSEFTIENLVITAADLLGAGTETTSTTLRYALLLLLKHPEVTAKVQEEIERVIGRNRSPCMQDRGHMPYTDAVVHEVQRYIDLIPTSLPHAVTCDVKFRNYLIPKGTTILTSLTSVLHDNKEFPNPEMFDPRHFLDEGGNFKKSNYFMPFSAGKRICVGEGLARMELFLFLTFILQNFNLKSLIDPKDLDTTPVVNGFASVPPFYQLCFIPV
T1 sequence (Q9Y5N1 whole entry): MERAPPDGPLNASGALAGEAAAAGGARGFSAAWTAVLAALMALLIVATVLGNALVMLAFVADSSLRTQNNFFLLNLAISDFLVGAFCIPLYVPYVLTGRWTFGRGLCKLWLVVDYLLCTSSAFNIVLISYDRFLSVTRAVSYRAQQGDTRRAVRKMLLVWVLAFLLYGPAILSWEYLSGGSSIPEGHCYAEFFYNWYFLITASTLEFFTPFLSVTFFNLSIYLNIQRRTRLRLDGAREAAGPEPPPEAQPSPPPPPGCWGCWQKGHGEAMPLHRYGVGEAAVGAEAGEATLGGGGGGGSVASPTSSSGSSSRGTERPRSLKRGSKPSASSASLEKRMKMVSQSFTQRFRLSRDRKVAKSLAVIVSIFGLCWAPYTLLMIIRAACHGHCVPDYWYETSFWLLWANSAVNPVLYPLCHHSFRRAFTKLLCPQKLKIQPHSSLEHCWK
Cytochrome P450 3A4, sequence (P08684 whole entry): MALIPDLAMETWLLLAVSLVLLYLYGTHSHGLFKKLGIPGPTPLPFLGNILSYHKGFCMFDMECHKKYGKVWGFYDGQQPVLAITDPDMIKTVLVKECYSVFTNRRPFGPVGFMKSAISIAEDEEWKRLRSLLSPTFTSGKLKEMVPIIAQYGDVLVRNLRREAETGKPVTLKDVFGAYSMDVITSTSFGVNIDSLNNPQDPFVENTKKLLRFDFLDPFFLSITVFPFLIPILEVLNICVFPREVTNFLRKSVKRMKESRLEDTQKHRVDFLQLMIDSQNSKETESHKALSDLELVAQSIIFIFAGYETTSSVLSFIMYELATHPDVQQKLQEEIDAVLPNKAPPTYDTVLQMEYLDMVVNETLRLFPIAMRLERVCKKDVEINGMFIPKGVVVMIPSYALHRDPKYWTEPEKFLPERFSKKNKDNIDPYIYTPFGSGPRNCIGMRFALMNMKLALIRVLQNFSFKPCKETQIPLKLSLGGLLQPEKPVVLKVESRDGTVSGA
Cytochrome P450 2D6, sequence (P10635 whole entry): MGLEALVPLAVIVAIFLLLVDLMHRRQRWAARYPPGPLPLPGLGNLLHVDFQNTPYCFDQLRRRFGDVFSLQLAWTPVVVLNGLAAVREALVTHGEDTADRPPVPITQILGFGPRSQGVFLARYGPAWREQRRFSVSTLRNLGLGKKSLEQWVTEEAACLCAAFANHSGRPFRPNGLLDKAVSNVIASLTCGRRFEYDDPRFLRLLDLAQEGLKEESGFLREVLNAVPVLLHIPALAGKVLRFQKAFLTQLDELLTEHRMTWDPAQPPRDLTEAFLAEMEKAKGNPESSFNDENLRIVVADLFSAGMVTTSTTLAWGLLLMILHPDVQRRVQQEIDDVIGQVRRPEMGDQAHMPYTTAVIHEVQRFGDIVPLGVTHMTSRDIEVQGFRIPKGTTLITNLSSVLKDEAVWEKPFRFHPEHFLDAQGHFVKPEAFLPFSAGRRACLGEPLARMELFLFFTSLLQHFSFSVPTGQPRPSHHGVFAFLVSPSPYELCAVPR
Cytochrome P450 2C9, sequence (P11712 whole entry): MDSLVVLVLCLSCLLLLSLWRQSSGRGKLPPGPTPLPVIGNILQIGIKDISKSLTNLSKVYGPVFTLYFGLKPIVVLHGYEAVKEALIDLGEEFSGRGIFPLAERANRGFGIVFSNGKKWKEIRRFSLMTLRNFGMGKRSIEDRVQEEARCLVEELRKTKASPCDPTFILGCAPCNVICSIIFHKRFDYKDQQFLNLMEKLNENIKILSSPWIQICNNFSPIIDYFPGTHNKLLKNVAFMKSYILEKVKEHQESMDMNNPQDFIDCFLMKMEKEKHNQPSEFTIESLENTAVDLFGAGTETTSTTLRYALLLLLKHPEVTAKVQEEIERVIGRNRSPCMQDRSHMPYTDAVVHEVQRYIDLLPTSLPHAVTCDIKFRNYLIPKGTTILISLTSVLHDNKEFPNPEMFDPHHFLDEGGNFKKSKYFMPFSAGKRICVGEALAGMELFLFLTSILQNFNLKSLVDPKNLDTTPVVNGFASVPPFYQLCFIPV
Histamine H3 receptor (Rattus norvegicus, UniProt Q9QYN8), sequence (Q9QYN8 whole entry): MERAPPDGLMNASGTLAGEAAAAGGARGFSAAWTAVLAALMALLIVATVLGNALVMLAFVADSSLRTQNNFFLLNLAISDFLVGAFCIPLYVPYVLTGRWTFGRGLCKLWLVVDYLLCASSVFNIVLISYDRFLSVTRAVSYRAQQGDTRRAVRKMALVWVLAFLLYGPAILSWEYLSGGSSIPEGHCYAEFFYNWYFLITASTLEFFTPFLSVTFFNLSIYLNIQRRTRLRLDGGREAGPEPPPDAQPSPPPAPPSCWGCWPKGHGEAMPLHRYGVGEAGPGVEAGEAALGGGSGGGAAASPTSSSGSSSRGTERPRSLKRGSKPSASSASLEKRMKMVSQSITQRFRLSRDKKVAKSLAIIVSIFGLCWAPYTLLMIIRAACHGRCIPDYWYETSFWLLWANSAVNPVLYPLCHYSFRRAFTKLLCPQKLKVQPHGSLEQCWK
Sodium-dependent noradrenaline transporter (Homo sapiens), sequence (P23975 whole entry): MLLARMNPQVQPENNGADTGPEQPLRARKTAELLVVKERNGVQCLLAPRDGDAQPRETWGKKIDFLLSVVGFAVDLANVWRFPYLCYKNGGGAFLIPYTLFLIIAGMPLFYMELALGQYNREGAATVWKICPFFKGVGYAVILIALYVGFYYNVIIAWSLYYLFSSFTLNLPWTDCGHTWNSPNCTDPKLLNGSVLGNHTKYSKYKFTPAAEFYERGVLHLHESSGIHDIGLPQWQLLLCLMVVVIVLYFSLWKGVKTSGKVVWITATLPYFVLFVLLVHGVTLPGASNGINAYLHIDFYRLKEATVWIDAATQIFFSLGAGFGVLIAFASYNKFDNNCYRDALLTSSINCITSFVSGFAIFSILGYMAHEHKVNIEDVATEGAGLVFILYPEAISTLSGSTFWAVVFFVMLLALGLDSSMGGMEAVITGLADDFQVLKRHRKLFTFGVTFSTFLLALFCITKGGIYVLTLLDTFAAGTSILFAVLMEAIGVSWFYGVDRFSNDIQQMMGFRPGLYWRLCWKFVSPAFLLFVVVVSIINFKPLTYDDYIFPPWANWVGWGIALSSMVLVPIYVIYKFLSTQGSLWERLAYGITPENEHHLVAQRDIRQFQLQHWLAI
Histamine H4 receptor (Homo sapiens), sequence (Q9H3N8 whole entry): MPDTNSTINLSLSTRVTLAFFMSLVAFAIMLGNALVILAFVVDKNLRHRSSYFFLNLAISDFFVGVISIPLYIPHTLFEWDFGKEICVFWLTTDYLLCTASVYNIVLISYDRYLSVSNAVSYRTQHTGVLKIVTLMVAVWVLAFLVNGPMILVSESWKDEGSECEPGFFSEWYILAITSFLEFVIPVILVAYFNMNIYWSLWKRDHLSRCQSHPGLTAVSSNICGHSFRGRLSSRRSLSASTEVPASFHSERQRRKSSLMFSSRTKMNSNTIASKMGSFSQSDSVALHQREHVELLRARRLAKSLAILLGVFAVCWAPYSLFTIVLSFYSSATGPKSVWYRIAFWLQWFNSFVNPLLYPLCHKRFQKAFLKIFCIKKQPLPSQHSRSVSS
Histamine H1 receptor (Homo sapiens), sequence (P35367 whole entry): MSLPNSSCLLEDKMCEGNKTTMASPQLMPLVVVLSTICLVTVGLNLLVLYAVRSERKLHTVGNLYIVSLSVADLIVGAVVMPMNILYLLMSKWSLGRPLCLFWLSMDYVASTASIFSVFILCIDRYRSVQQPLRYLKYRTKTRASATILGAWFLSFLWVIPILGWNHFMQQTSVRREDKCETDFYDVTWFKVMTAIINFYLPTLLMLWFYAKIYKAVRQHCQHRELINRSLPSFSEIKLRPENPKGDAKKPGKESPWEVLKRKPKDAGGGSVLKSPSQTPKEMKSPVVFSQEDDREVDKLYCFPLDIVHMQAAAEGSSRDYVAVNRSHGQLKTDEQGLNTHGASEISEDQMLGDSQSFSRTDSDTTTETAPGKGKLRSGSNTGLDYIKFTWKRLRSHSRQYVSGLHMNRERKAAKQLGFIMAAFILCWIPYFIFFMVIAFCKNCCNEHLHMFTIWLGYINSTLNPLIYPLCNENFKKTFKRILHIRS

Compound C[C@@H]1CCCN1CCCOc1ccc(-c2ccc(=O)n(C)n2)cc1 has an AUC(0-t) at 6 h [1] of 538 ng·h/mL, a Kp [2] of 3.5 and a half-life [3] of 138 min.

Compound C[C@@H]1CCCN1CCCOc1ccc(-c2ccc(=O)[nH]n2)c(F)c1 has a Ki [4] of 69 nM and a Ki [5] of 16 nM.

For C[C@@H]1CCCN1CCCOc1ccc(-c2cc(-c3ccccn3)c(=O)[nH]n2)cc1, the Ki [4] was 10 nM, the bioavailability [6] was under 10% and the Kp [7] was under 1. It also gave a Ki [5] of 3.1 nM.

Compound C[C@@H]1CCCN1CCCOc1ccc(-c2ccc(=O)[nH]n2)cn1 has a Ki [4] of 70 nM and a Ki [5] of 35 nM.

Compound C[C@@H]1CCCN1CCCOc1ccc(-c2ccc(=O)n(CC(F)(F)F)n2)cc1 has a Ki [4] of 11 nM and a Ki [5] of 5.7 nM.

C[C@H](COc1ccc(-c2ccc(=O)n(C)n2)cc1)CN1CCC[C@H]1C showed an IC50 [8] of over 30000 nM, a half-life [9] of over 40 min and a Time [10] of 231 min. For the same compound, the Cmax [11] was 146 ng/mL, the half-life [12] was 48 min and the AUC(0-t) at 6 h [1] was 892 ng·h/mL. The Kp [2] was 2.5, the Vd [13] was 2.5 L/kg and the Activity [14] was “Active”. It also gave a Ki [4] of 4.6 nM, an inhibition [15] of 19% and an EC50 [16] of 2.1 nM. It also gave a half-life [17] of over 40 min, a Time [18] of 166 min and a Time [19] of 196 min. The IC50 [20] was over 30000 nM, the ED50 [21] was 0.02 mg/kg and the inhibition [21] was “Dose-dependent effect”. For the same compound, the bioavailability [22] was 38%, the IC50 [23] was over 30000 nM and the half-life [24] was over 40 min. For the same compound, the half-life [25] was over 40 min, the solubility [26] was over 250 µg/mL and the half-life [27] was over 40 min. For the same compound, the IC50 [28] was over 30000 nM, the IC50 [29] was over 30000 nM and the half-life [3] was 258 min. It also gave a clearance [30] of 37 mL/min/kg, a Ki [5] of 2.4 nM and a solubility [31] of over 250 µg/mL.

In the case of Cc1cc(=O)[nH]nc1-c1ccc(OCCCN2CCC[C@H]2C)cc1, the Ki [4] is reported as 12 nM and the Ki [5] is reported as 2.9 nM.

For C[C@@H]1CCCN1CCCOc1c(F)cc(-c2ccc(=O)[nH]n2)cc1F, the Ki [4] was 40 nM and the Ki [5] was 7.1 nM.

Work on C[C@@H]1CCCN1CCCOc1ccc(-c2ccc(=O)n(CCO)n2)cc1 yielded a Ki [4] of 9.5 nM and a Ki [5] of 3 nM.

Compound COc1cc(OCCCN2CCC[C@H]2C)ccc1-c1ccc(=O)[nH]n1 has a Ki [4] of 229 nM and a Ki [5] of 152 nM.

C[C@@H]1CCCN1CCCOc1ccc(-c2n[nH]c(=O)cc2-c2ccccn2)cc1 gave a Ki [4] of 70 nM, a bioavailability [6] of under 10% and a Kp [7] of under 1. It also gave a Ki [5] of 12 nM.

With C[C@@H]1CCCN1CCCOc1ccc(-c2ccc(=O)n(-c3ncccn3)n2)cc1 the IC50 [32] was over 10000 nM, the IC50 [8] was over 30000 nM and the half-life [9] was over 40 min. For the same compound, the clearance [33] was 29 mL/min/kg, the Ki [4] was 7.9 nM and the half-life [17] was over 40 min. It also gave a bioavailability [6] of 56%, a Kp [7] of 0.5 and an IC50 [20] of over 30000 nM. The IC50 [23] was over 30000 nM, the Vd [34] was 3.9 L/kg and the half-life [35] was 90 min. It also gave a half-life [24] of over 40 min, a half-life [25] of over 40 min and a half-life [27] of over 40 min. It also gave an IC50 [28] of over 30000 nM, an IC50 [29] of over 30000 nM and a Ki [5] of 1.4 nM.

C[C@@H]1CCCN1CCCOc1ccc(-c2ccc(=O)n(-c3ccccn3)n2)cc1 showed a Ki [4] of 22 nM and a Ki [5] of 10 nM.

C[C@@H]1CCCN1CCCOc1c(F)cc(-c2ccc(=O)n(C)n2)cc1F gave a Ki [4] of 41 nM and a Ki [5] of 11 nM.

Compound C[C@@H]1CCCN1CCCOc1ccc(-c2ccc(=O)[nH]n2)cc1C#N has a Ki [4] of 111 nM and a Ki [5] of 38 nM.

Cc1cc(-c2ccc(OCCCN3CCC[C@H]3C)cc2)n[nH]c1=O showed a Ki [4] of 8.7 nM and a Ki [5] of 3.4 nM.

C[C@@H](COc1ccc(-c2ccc(=O)n(C)n2)cc1)CN1CCC[C@H]1C gave a Ki [4] of 52 nM and a Ki [5] of 15 nM.

C[C@@H]1CCCN1CCCOc1ccc(-c2ccc(=O)n(C)n2)cc1F showed an IC50 [8] of over 30000 nM, a half-life [9] of over 40 min and a Time [36] of 184 min. It also gave a Time [10] of 157 min, a Cmax [11] of 284 ng/mL and a half-life [12] of 72 min. It also gave an AUC(0-t) at 6 h [1] of 936 ng·h/mL, a Kp [2] of 3.4 and a Vd [13] of 4.5 L/kg. For the same compound, the inhibition [37] was under 30%, the Activity [14] was “Active” and the Ki [4] was 27 nM. It also gave an inhibition [15] of over 70%, an EC50 [16] of 1.3 nM and a half-life [17] of over 40 min. The IC50 [20] was over 30000 nM, the ED50 [21] was 0.13 mg/kg and the inhibition [21] was “Dose-dependent effect”. For the same compound, the bioavailability [22] was 42%, the IC50 [23] was over 30000 nM and the half-life [24] was over 40 min. For the same compound, the half-life [25] was over 40 min, the solubility [26] was over 250 µg/mL and the half-life [27] was over 40 min. The IC50 [28] was over 30000 nM, the IC50 [29] was over 30000 nM and the half-life [3] was 96 min. For the same compound, the inhibition [38] was under 30%, the clearance [30] was 38 mL/min/kg and the Activity [39] was “Dose-dependent effect”. It also gave a Ki [5] of 5.8 nM, a solubility [31] of over 250 µg/mL and an inhibition [40] of under 30%.

C[C@@H]1CCCN1CCCOc1ccc(-c2ccc(=O)n(CCF)n2)cc1 showed a Ki [4] of 11 nM and a Ki [5] of 3.4 nM.

With C[C@@H]1CCCN1CCCOc1ccc(-c2ccc(=O)n(C)n2)cc1Cl the Ki [4] was 14 nM and the Ki [5] was 4.4 nM.

Reference: ChEMBL document CHEMBL1828619, “Identification of pyridazin-3-one derivatives as potent, selective histamine H₃ receptor inverse agonists with robust wake activity” (Bioorg Med Chem Lett, 2011)
